ChEMBL document CHEMBL3351883, “β-Agarofurans and Sesquiterpene Pyridine Alkaloids from Maytenus spinosa” (J Nat Prod, 2014)
Calls of active or inactive are those of the source. The rule behind the calls is not given here.

Legend:
[1] = tested on: Human immunodeficiency virus 1; assay: Antiviral activity against HIV1 infected in human C8166 cells after 72 hrs by p24 antigen based ELISA; type: functional
[2] = Cytotoxicity against human C8166 cells assessed as cell viability by MTT assay; type: cell-based; conditions: read-out: Activity

With `CC(=O)OC[C@]12[C@H](OC(C)=O)[C@@H](O)[C@@H]3[C@@H](O)[C@@]14O[C@@]3(C)COC(=O)c1cnccc1CCC(C)C(=O)O[C@@H]([C@H](OC(C)=O)[C@@H]2OC(C)=O)[C@]4(C)O` (stereo partly specified) the inhibition [1] was “inactive”.

In the case of `CC(=O)OC[C@@]12[C@H](OC(C)=O)[C@H](OC(C)=O)[C@@H]3[C@@H](OC(=O)c4ccccc4)[C@@]14O[C@@]3(C)COC(=O)c1cccnc1CC[C@H](C)C(=O)O[C@@H]([C@H](OC(C)=O)[C@@H]2OC(C)=O)[C@]4(C)O`, the inhibition [1] is reported as “inactive”.

In the case of `CCC(C)C(=O)O[C@@H]1[C@H](OC(C)=O)[C@@H]2[C@@H](OC(C)=O)[C@]3(OC2(C)C)[C@H](C)C[C@H](OC(C)=O)[C@H](OC(=O)c2ccccc2)[C@@]13C` (stereo partly specified), the inhibition [1] is reported as “inactive”.

In the case of `CCC(C)C(=O)O[C@@H]1[C@@H]2[C@@H](OC(C)=O)[C@]3(OC2(C)C)[C@H](C)C[C@H](O)[C@H](OC(C)=O)[C@@]3(COC(C)=O)[C@@H]1OC(=O)c1ccccc1` (stereo partly specified), the inhibition [1] is reported as “inactive”.

For `CC(=O)OC[C@]12[C@H](OC(C)=O)[C@@H](OC(C)=O)[C@@H]3[C@@H](OC(=O)N(C)C)[C@@]14O[C@@]3(C)COC(=O)c1cnccc1CCC(C)C(=O)O[C@@H]([C@H](OC(C)=O)[C@@H]2OC(C)=O)[C@]4(C)O` (stereo partly specified), the inhibition [1] was “inactive”.

For `CC(=O)OC[C@]12[C@H](OC(C)=O)[C@H](OC(C)=O)[C@@H]3[C@@H](OC(C)=O)[C@@]14O[C@@]3(C)COC(=O)c1cccnc1CCC(C)C(=O)O[C@@H]([C@H](OC(C)=O)[C@@H]2OC(C)=O)[C@]4(C)O` (stereo partly specified), the inhibition [1] was “inactive”.

For `CC(=O)OC[C@]12[C@@H](OC(C)=O)[C@@H](OC(=O)c3ccccc3)[C@@H]3C[C@]1(OC3(C)C)[C@H](C)C[C@H](OC(C)=O)[C@@H]2OC(C)=O`, the “inhibition (INH)” value [1] was 64.4% and the viability [2] was 96%.

In the case of `CC(=O)OC[C@]12[C@H](OC(C)=O)C(=O)[C@@H]3[C@@H](OC(C)=O)[C@@]14O[C@@]3(C)COC(=O)c1ncccc1C[C@H](C)[C@H](C)C(=O)O[C@H]([C@@H](OC(C)=O)[C@@H]2OC(C)=O)[C@H]4C`, the inhibition [1] is reported as “inactive”.

In the case of `CC(=O)OC[C@]12[C@H](OC(C)=O)[C@@H](OC(C)=O)[C@@H]3[C@@H](OC(=O)c4cccnc4)[C@@]14O[C@@]3(C)COC(=O)c1cnccc1CCC(C)C(=O)O[C@@H]([C@H](OC(C)=O)[C@@H]2OC(C)=O)[C@]4(C)O` (stereo partly specified), the inhibition [1] is reported as “inactive”.

In the case of `CC(=O)OC[C@]12[C@H](OC(C)=O)[C@@H](OC(C)=O)[C@@H]3[C@@H](OC(=O)c4ccc(Br)cc4)[C@@]14O[C@@]3(C)COC(=O)c1cnccc1CCC(C)C(=O)O[C@@H]([C@H](OC(C)=O)[C@@H]2OC(C)=O)[C@]4(C)O` (stereo partly specified), the inhibition [1] is reported as “inactive”.

In the case of `CC(=O)OC[C@]12[C@H](OC(C)=O)[C@@H](OC(C)=O)[C@@H]3C(=O)[C@@]14O[C@@]3(C)COC(=O)c1cnccc1CCC(C)C(=O)O[C@@H]([C@H](OC(C)=O)[C@@H]2OC(C)=O)[C@]4(C)O` (stereo partly specified), the inhibition [1] is reported as “inactive”.

In the case of `CC(=O)OC[C@]12[C@H](OC(C)=O)[C@H](OC(C)=O)[C@@H]3[C@@H](OC(C)=O)[C@@]14O[C@@]3(C)COC(=O)c1cnccc1CCC(C)C(=O)O[C@@H]([C@H](OC(C)=O)[C@@H]2OC(C)=O)[C@]4(C)O` (stereo partly specified), the inhibition [1] is reported as “inactive”.

With `CCCCCCCCCCCC(=O)O[C@@H]1[C@H]2[C@H](OC(C)=O)[C@@H](OC(C)=O)[C@]3(COC(C)=O)[C@@H](OC(C)=O)[C@@H](OC(C)=O)[C@@H]4OC(=O)C(C)CCc5ccncc5C(=O)OC[C@]2(C)O[C@]13[C@@]4(C)O` (stereo partly specified) the inhibition [1] was “inactive”.

For `CC(=O)O[C@@H]1[C@H]2[C@@H](OC(=O)c3ccccc3)[C@@H](OC(=O)c3ccccc3)[C@]3(C)[C@@H](OC(C)=O)[C@@H](OC(=O)c4ccccc4)C[C@@H](C)[C@@]13OC2(C)C`, the inhibition [1] was “inactive”.

With `CC(=O)OC[C@]12[C@H](OC(C)=O)[C@@H](OC(C)=O)[C@@H]3[C@@H](O)[C@@]14O[C@@]3(C)COC(=O)c1cnccc1CCC(C)C(=O)O[C@@H]([C@H](OC(C)=O)[C@@H]2OC(C)=O)[C@]4(C)O` (stereo partly specified) the inhibition [1] was “inactive”.

In the case of `CC(=O)OC[C@]12[C@H](OC(C)=O)[C@@H](OC(C)=O)[C@@H]3[C@@H](OC(C)=O)[C@@]14O[C@@]3(C)COC(=O)c1cccnc1CCC(C)C(=O)O[C@@H]([C@H](OC(C)=O)[C@@H]2OC(C)=O)[C@]4(C)O` (stereo partly specified), the inhibition [1] is reported as “inactive”.

For `CC(=O)O[C@@H]1[C@H]2[C@@H](OC(=O)c3ccccc3)[C@@H](OC(=O)c3ccccc3)[C@]3(C)[C@@H](OC(C)=O)[C@@H](O)C[C@@H](C)[C@@]13OC2(C)C`, the inhibition [1] was “inactive”.

In the case of `CC(=O)OC[C@]12[C@H](OC(C)=O)[C@@H](OC(C)=O)[C@@H]3[C@@H](OC(C)=O)[C@@]14O[C@@]3(C)COC(=O)c1cnccc1CCC(C)C(=O)O[C@@H]([C@H](OC(C)=O)[C@@H]2OC(C)=O)[C@]4(C)O` (stereo partly specified), the inhibition [1] is reported as “inactive”.

With `CC(=O)O[C@@H]1[C@@H]2[C@@H](OC(C)=O)[C@]3(OC2(C)C)[C@H](C)C[C@H](OC(C)=O)[C@H](OC(=O)c2ccccc2)[C@@]3(C)[C@@H]1OC(C)=O` the inhibition [1] was “inactive”.

For `CC(=O)O[C@@H]1[C@@H]2[C@@H](OC(C)=O)[C@]3(OC2(C)C)[C@H](C)C[C@H](O)[C@H](OC(C)=O)[C@@]3(C)[C@@H]1OC(=O)c1ccccc1`, the inhibition [1] was “inactive”.

With `CC(=O)OC[C@]12[C@H](OC(C)=O)C(=O)[C@@H]3[C@@H](O)[C@@]14O[C@@]3(C)COC(=O)c1cnccc1CCC(C)C(=O)O[C@@H]([C@H](OC(C)=O)[C@@H]2OC(C)=O)[C@]4(C)O` (stereo partly specified) the inhibition [1] was “inactive”.

For `CC(=O)OC[C@]12[C@H](OC(=O)c3ccccc3)[C@@H](OC(C)=O)[C@@H]3[C@@H](OC(C)=O)[C@]1(OC3(C)C)[C@H](C)C[C@H](O)[C@@H]2OC(C)=O`, the inhibition [1] was “inactive”.

In the case of `CC(=O)OC[C@]12[C@H](OC(C)=O)[C@H](OC(=O)c3ccccc3)[C@@H]3[C@@H](OC(C)=O)[C@]1(OC3(C)C)[C@H](C)C[C@H](OC(C)=O)[C@@H]2OC(C)=O`, the inhibition [1] is reported as “inactive”.

With `CC(=O)OC[C@]12[C@H](OC(=O)c3ccccc3)[C@H](OC(=O)c3ccccc3)[C@@H]3[C@@H](OC(C)=O)[C@]1(OC3(C)C)[C@H](C)C[C@H](O)[C@@H]2OC(C)=O` the inhibition [1] was “inactive”.

For `CC(=O)OC[C@]12[C@H](OC(C)=O)[C@@H](OC(C)=O)[C@@H]3[C@@H](OC(=O)c4ccco4)[C@@]14O[C@@]3(C)COC(=O)c1cnccc1CCC(C)C(=O)O[C@@H]([C@H](OC(C)=O)[C@@H]2OC(C)=O)[C@]4(C)O` (stereo partly specified), the inhibition [1] was “inactive”.
